From patent US5792920A, “Plants with altered ability to synthesize starch and process for obtaining them” (Imperial Chemical Industries PLC, priority 1988, dated 1998)
Where two headings read alike, the source gives them in different places. Each block holds one compound with its values, some of them ahead of it.

Key:
[1] = target: T1, wheat endosperm ADP-glucose pyrophosphorylase (Triticum aestivum, UniProt P12299+P30523)
T1 sequence (P12299 63-522): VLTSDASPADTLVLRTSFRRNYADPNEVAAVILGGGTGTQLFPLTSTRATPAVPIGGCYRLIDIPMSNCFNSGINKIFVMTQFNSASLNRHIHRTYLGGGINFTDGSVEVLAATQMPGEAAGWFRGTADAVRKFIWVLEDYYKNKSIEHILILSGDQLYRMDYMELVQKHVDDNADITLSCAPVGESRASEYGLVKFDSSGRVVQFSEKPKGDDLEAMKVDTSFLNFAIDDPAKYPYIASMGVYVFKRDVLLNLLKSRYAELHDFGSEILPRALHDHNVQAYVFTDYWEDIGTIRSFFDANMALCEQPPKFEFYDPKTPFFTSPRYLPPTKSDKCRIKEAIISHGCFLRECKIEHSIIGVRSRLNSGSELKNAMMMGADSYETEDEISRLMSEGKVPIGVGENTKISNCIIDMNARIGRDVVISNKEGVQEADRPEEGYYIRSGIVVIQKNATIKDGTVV
T1 sequence (P30523 1-473): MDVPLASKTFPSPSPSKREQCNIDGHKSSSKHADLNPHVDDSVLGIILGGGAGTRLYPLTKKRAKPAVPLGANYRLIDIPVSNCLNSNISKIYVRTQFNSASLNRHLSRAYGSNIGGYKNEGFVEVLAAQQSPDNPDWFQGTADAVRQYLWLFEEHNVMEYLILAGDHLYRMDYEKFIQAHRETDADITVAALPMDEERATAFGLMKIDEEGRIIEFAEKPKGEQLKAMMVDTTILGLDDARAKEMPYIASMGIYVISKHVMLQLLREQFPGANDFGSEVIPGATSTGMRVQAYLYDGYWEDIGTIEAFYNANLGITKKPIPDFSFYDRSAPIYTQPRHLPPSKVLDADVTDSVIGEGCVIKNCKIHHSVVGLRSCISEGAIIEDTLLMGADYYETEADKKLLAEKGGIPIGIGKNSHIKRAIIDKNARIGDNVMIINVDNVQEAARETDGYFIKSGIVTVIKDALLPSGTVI

[2] = system: plant leaf ADP-glucose pyrophosphorylase; conditions: cited from earlier work; for activation in vitro: all plant leaf enzymes studied
[3] = target: T1, wheat endosperm ADP-glucose pyrophosphorylase; assay: Screen of 3-phosphoglycerate analogues for antagonism of phosphate inhibition; assay type: biochemical; set-up: Partially-purified wheat endosperm ADP-glucose pyrophosphorylase; from tissue; host or cells: wheat endosperm; conditions: compound 3 mM, 1 mM phosphate
Experimental: There is clear evidence that the wheat endosperm enzyme has allosteric properties by virtue of being inhibited by phosphate and the inhibition being partially relieved by 3-phosphoglycerate. […] A careful analysis of various chemical that were chemically very closely related to 3-phosphoglycerate was carried out.
Seventeen compounds were tested at 3 mM concentration for their ability to antagonise the inhibition of the enzyme by 1 mM phosphate. The first series of compounds tested were phosphonate analogues of 3-phosphoglycerate. […] The second series tested were derivatives bearing structural similarity to 3-phosphoglycerate. Of these, only one compound gave weak alleviation of phosphate inhibition.

[4] = target: T2, ADP-glucose pyrophosphorylase enzyme from rice endosperm (Oryza sativa subsp. japonica, UniProt P15280+Q7G065); conditions: 5 mM 3-phosphoglycerate; cited from earlier work
T2 construct: host or cells: rice endosperm
T2 sequence (P15280 1-479 isoform P15280-2): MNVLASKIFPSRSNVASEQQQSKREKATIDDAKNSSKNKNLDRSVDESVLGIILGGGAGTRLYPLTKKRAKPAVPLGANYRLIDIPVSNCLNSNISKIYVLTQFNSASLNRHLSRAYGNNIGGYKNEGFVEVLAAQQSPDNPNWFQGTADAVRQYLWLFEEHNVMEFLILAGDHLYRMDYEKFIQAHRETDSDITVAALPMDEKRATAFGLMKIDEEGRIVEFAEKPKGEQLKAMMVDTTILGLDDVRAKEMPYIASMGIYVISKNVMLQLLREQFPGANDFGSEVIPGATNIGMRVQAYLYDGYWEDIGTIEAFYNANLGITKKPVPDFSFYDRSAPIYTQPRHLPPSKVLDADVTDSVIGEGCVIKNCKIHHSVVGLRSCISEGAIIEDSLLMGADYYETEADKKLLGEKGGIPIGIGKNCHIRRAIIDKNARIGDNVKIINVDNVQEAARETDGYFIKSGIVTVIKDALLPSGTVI
T2 sequence (Q7G065 1-518): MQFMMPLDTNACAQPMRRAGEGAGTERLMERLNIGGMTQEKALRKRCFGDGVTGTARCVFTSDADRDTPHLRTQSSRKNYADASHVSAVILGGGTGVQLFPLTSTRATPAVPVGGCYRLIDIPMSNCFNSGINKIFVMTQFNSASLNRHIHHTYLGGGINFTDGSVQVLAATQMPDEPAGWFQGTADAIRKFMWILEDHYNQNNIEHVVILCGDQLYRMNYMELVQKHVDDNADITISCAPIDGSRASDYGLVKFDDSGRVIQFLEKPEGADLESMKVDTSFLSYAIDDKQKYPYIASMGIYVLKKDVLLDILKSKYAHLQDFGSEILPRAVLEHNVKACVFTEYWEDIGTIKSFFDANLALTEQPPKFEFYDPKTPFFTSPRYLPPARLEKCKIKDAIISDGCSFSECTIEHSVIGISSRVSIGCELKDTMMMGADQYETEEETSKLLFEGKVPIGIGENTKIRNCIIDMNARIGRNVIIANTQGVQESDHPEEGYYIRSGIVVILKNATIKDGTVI

[5] = target: T3, wheat leaf ADP-glucose pyrophosphorylase (Triticum aestivum, UniProt P12298); assay: biochemical; conditions: read-out: fold activation of enzyme
T3 sequence (P12298 1-301): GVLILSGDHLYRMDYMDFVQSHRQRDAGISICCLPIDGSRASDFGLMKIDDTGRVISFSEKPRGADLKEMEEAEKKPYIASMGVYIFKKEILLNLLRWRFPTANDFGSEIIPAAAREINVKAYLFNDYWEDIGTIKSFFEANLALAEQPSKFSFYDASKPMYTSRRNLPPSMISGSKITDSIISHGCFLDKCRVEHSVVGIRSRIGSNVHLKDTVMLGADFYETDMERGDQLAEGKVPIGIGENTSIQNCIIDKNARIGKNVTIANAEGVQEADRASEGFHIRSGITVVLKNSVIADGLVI
T3 sequence (P30523 2-473 partner): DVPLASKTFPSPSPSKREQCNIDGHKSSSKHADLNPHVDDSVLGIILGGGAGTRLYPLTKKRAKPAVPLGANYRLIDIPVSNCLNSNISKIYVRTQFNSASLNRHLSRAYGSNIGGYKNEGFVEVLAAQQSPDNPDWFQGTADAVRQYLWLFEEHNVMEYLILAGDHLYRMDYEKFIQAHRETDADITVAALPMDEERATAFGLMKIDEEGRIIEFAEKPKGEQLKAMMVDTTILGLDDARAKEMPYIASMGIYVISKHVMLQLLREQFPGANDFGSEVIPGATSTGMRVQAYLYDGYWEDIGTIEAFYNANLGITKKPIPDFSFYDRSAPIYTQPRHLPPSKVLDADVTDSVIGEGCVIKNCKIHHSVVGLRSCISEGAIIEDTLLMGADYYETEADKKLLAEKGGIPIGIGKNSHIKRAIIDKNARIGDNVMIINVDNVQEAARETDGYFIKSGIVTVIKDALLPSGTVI

[6] = target: T3, wheat leaf ADP-glucose pyrophosphorylase; conditions: read-out: concentration required to achieve half-maximal inhibition of enzyme activity

alleviation of phosphate inhibition ([1]; wheat endosperm enzyme): weakly alleviates phosphate inhibition
SMILES: O=C(CO)[C@@H](O)[C@H](O)[C@H](O)COP(=O)(O)O [Fructose-6-phosphate, fructose-6-phosphate]
activation in vitro [2]: to a lesser extent

SMILES: O=C(O)CC(CP(=O)(O)O)C(=O)O (centres unmarked) [phosphonomethyl-butanedioic acid]
antagonism of inhibition of the enzyme by phosphate [3]: weak antagonism of phosphate inhibition

SMILES: O=S(=O)(O)O [Sulphate]
antagonism of inhibition of the enzyme by phosphate [3]: antagonised phosphate inhibition

SMILES: O=C(COP(=O)(O)O)[C@@H](O)[C@H](O)[C@H](O)COP(=O)(O)O [fructose-1,6-bisphosphate]
activation of enzyme by fructose-1,6-bisphosphate ([1]; wheat endosperm enzyme): lack of detectable activation | activation in vitro [2]: to a lesser extent

fold induction at 100 µM [5]: 14.5 | fold induction at 1000 µM [5]: 10
SMILES: O=C(O)C(O)COP(=O)(O)O (centres unmarked) [3-phosphoglycerate]
fold activation in vitro [4]: 1,2 fold

SMILES: C=C(OP(=O)(O)O)C(=O)O [phosphoenol pyruvate]
activation in vitro [2]: to a lesser extent

SMILES: O=P(O)(O)O [orthophosphate]
IC50 ([1]; read-out: I0.5 value for orthophosphate, in the presence of 1 mM 3-phosphoglycerate): 1500 µM | IC50 ([1]; read-out: concentration required to achieve half-maximal inhibition of enzyme activity, wheat endosperm enzyme): 700 µM | IC50 [6]: 56 µM | IC50 ([2]; enzymes from plant leaves, in vitro, read-out: orthophosphate concentration for half-maximal inhibition of enzyme activity): < 100 µM
